Paper PMC11403612, “Preparation and Preclinical Characterization of a Simple Ester for Dual Exogenous Supply of Lactate and Beta-hydroxybutyrate” (Journal of Agricultural and Food Chemistry, 2024)

Tests used:
[1] = In vitro stability in simulated gastric fluid; type: in vitro ADME; conditions: simulated gastric fluid (SGF), pH = 1
Description: (§1) The in vitro stability of LaKe was evaluated following incubation in simulated gastric fluid (SGF), simulated intestinal fluid (SIF), fresh and frozen plasma (rats and humans, respectively), and the presence of hepatocytes (rats and humans) and liver microsomes (rats and humans). At the chosen time points, the mixtures were analyzed by LC-MS/MS to quantify the remaining LaKe and all assays included at least one control compound with known pharmacokinetic properties. […]
(§2) centrifuged at 4000 rpm, 4℃ for 20 min. 60 μL of supernatant was mixed with 180 μL of purified water for subsequent LC/MS/MS analysis.
(§3) LC-MS/MS Condition: ACQUITY UPLC BEH C18 1.7um 2.1 * 50mm Column (Part No.186002350). Mobile phase: A: 0.1% Formic Acid in Water; B: 0.1% Formic Acid in ACN. […]
(§4) Samples were incubated at 37 ℃, 600 rpm for the appointed time. At the chosen time points (60, 120, 360, 1440 minutes) samples were immediately mixed with 400 μL of cold acetonitrile containing 200 ng/mL tolbutamide and labetalol (internal standards). 200 μL of suspension was removed and mixed completely with 400 μL of cold acetonitrile containing 200 ng/mL tolbutamide and labetalol again. The T0 samples were prepared by transferring 198 μL of SIF solution to corresponding well after adding 400 μL of cold acetonitrile containing 200 ng/mL tolbutamide and then mixing completely. The samples were […]
(§5) Stability of LaKe in plasma […]

[2] = Hepatocyte stability of LaKe, rat; type: in vitro ADME; conditions: cryopreserved hepatocytes
[3] = Stability of LaKe in plasma, rat; type: in vitro ADME
Description: as §1, §2, §3, §4, §5

[4] = Short-term pharmacokinetics of LaKe in rats (BHB and lactate levels); type: in vivo, Sprague–Dawley rats; conditions: 4.5 g/kg oral
Description: Male Sprague–Dawley rats (300–350g, Taconic, Ry, Denmark) were kept for acclimatization at a constant temperature of 23 °C with a 12 h light-dark cycle and with unlimited access to food and water. All animal handling was in accordance with national guidelines in Denmark and the guidelines from the Directive 2010/63/EU of the European Parliament on the protection of animals used for scientific purposes, and all experiments conformed to Danish Law (Act. No. 1306 of 23/11/2007). The experimental protocol was approved by the Danish Animal Expectorate (2018-15-0201-01475).
The rats were randomly selected to receive either LaKe (n = 8) or placebo (n = 8).
Rats were anesthetized in an induction chamber with 8% Sevoflurane (Sevorane, AbbVIE A/S, Copenhagen, Denmark) mixed with oxygen saturated atmospheric air (flow: 2.0 L/min). Upon achieved anesthesia, the rats were intubated and connected to a mechanical ventilator (Ugo Basile 7025 rodent ventilator, Comerio, Varese, Italy) with an adjusted flow of 1.0L/min with 3.5% Sevoflurane. Body temperature was kept at a constant of 37 ± 1 °C with a temperature probe (UNO, Zevenaar, Holland). A PTFE-coated flexible orogastric tube (Fuchigami, Japan) was placed, and the rat was left for stabilization for 15 min. […]
Short term pharmacokinetics of LaKe in rats – Detailed protocols for LC-MS/MS and FFA analyses BHB quantification by LC-MS/MS […]

CC(O)CCOC(=O)C(C)O (stereo not drawn) [LaKe, 3-hydroxybutyl 2-hydroxypropanoate]
half-life [1]: > 720 min | half-life at 0.1 mg/mL [2]: < 30 min | detection of LaKe at the first time point ([3]; fresh plasma from rats, 10 min): could not be detected | half-life at 2 µM ([3]; rat plasma (fresh)): < 30 min | BHB levels at 120 min [4]: remained elevated | lactate levels at 120 min [4]: largely back at the baseline level
